Data on one substance can be found in US6951655B2, “Pro-micelle pharmaceutical compositions” (IMI Biomed, Inc., priority 2001, dated 2005).

For assay [1], the system named is rabbits. The assay can be described thus: Blood glucose in rabbits after i.p. administration before glucose challenge. Particulars: i.p. 15 minutes before glucose challenge of 250 mg/kg, FIG. 10. Type of assay: in vivo, rabbit. The protocol: FIG. 10 depicts blood glucose when a standard regular insulin solution (0.3 ml of 3.1 IU/ml) or an extraction of the pro-micelle (2.5 ml of 0.4 IU/ml) was administered intraperitonally (i.p.) to rabbits 15 minutes before a glucose challenge of 250 mg/kg.

Assay [2] relates to rabbits. The assay can be described thus: Blood glucose in rabbits after i.v. injection before glucose challenge. Type of assay: in vivo, rabbit. The protocol:
FIG. 11 depicts blood glucose levels when a standard regular insulin (0.2 ml of 3.1 IU/ml) or an extraction of the pro-micelle (1.5 ml. of 0.4 IU/ml) was intravenously (i.v.) injected into rabbits one minute before a glucose challenge of 250 mg/kg. […] With the formulation of the invention, a hypoglycemic effect was noticed within 35 minutes, and lasted for the duration of the experiment of 120 minutes or more.

With “standard regular insulin: Standard regular insulin solution, 3.1 IU/ml, comparator”, the “effect on blood sugar after i.p. injection” value in assay [1] was “decreased blood sugar”. Besides, the “duration of hypoglycemic effect” value in assay [2] (i.v.) is on record as “short in duration”. The “blood glucose course after i.v. injection” value in assay [2] (i.v. one minute before glucose challenge of 250 mg/kg, FIG. 11) is recorded as “rapidly decreased from 20 to 45 minutes”. Also, the “blood glucose relative to control level within 90 minutes of injection” value in assay [2] (i.v., within 90 minutes of the insulin injection) is recorded as 10-30 % of the control level.
